Results reported in patent US20110009381A1, “SOLUBILIZED THIAZOLOPYRIDINES” (Sirtis Pharmaceuticals, Inc., priority 2007, published 2011).

Target: T1, SIRT1 (Homo sapiens, UniProt Q96EB6)
T1 sequence (Q96EB6 1-747): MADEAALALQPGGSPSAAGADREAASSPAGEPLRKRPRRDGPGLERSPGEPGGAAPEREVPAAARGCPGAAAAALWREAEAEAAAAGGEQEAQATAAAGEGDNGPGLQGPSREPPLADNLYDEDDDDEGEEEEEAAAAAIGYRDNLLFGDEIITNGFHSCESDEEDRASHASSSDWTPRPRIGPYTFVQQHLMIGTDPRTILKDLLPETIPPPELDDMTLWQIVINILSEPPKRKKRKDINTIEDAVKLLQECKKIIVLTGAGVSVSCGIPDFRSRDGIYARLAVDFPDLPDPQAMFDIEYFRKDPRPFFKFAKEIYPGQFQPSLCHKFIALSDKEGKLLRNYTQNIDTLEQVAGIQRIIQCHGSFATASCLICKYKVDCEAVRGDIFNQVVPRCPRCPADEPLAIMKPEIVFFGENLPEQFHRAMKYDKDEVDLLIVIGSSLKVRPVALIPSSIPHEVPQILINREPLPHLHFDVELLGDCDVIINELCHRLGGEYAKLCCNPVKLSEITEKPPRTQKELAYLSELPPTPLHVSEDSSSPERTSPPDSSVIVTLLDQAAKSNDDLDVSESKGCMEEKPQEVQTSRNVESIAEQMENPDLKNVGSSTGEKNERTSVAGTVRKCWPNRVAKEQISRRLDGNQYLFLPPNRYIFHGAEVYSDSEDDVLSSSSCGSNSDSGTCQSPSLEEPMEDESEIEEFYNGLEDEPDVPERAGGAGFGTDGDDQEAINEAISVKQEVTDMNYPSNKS
Assay: Mass spectrometry based assay to identify modulators of SIRT1 activity (deacetylation of p53-based acetylated peptide substrate)
Format: biochemical
Conditions: 10 nM SIRT1, 0.5 μM peptide substrate, 120 μM βNAD+, 25 minutes at 25° C.; for EC1.5: SIRT1 activation
From the text: A mass spectrometry based assay was used to identify modulators of SIRT1 activity. The mass spectrometry based assay utilizes a peptide having 20 amino acid residues as follows: Ac-EE-K(biotin)-GQSTSSHSK(Ac)NleSTEG-K(5TMR)-EE-NH2 (SEQ ID NO: 1) wherein K(Ac) is an acetylated lysine residue and Nle is a norleucine. The peptide is labeled with the fluorophore 5TMR (excitation 540 nm/emission 580 nm) at the C-terminus. The sequence of the peptide substrate is based on p53 with several modifications. In addition, the methionine residue naturally present in the sequence was replaced with the norleucine because the methionine may be susceptible to oxidation during synthesis and purification.
The mass spectrometry assay is conducted as follows: 0.5 μM peptide substrate and 120 μM βNAD^+ is incubated with 10 nM SIRT1 for 25 minutes at 25° C. in a reaction buffer (50 mM Tris-acetate pH 8, 137 mM NaCl, 2.7 mM KCl, 1 mM MgCl2, 5 mM DTT, 0.05% BSA). Test compounds may be added to the reaction as described above. The SirT1 gene is cloned into a T7-promoter containing vector and transformed into BL21(DE3). After the 25 minute incubation with SIRT1, 10 μL of 10% formic acid is added to stop the reaction. Reactions are sealed and frozen for later mass spec analysis. Determination of the mass of the substrate peptide allows for precise determination of the degree of acetylation (i.e. starting material) as compared to deacetylated peptide (product).
A control for inhibition of sirtuin activity is conducted by adding 1 μL of 500 mM nicotinamide as a negative control at the start of the reaction (e.g., permits determination of maximum sirtuin inhibition). A control for activation of sirtuin activity is conducted using 10 nM of sirtuin protein, with 1 μL of DMSO in place of compound, to determine the amount of deacetylation of the substrate at a given timepoint within the linear range of the assay. This timepoint is the same as that used for test compounds and, within the linear range, the endpoint represents a change in velocity.
For the above assay, SIRT1 protein was expressed and purified as follows. The SirT1 gene was cloned into a T7-promoter containing vector and transformed into BL21(DE3). The protein was expressed by induction with 1 mM IPTG as an N-terminal His-tag fusion protein at 18° C. overnight and harvested at 30,000×g. Cells were lysed with lysozyme in lysis buffer (50 mM Tris-HCl, 2 mM Tris[2-carboxyethyl]phosphine (TCEP), 10 μM ZnCl2, 200 mM NaCl) and further treated with sonication for 10 min for complete lysis. The protein was purified over a Ni-NTA column (Amersham) and fractions containing pure protein were pooled, concentrated and run over a sizing column (Sephadex S200 26/60 global). The peak containing soluble protein was collected and run on an Ion-exchange column (MonoQ). Gradient elution (200 mM-500 mM NaCl) yielded pure protein. This protein was concentrated and dialyzed against dialysis buffer (20 mM Tris-HCl, 2 mM TCEP) overnight. The protein was aliquoted and frozen at −80° C. until further use.
Sirtuin modulating compounds that activated SIRT1 were identified using the assay described above and are shown below in Table 1. The EC1-5 values for the activating compounds are represented by A′ (EC1.5<250 nM), A (EC1.5≧250 nM and ≦1 uM), B (EC1.5>1 and ≦10 uM), or C (EC1.5>10 uM). The percent maximum fold activation is represented by A (Fold activation≧300%), B (Fold Activation≧150% and <300%), or C (Fold Activation<150%).

SMILES	FOLD ACT. (percent maximum fold activation)	EC1.5
Cc1nc(CCNc2cc(C(=O)Nc3ccccc3-c3nc4cccnc4s3)nc(-c3ccccc3)n2)cs1 [Compound 53]	B (Fold Activation≧150% and <300%)	A (EC1.5≧250 nM and ≦1 uM)
NCCCCCNc1cc(C(=O)Nc2ccccc2-c2nc3cccnc3s2)nc(-c2ccccc2)n1 [Compound 86]	A (Fold activation≧300%)	A′ (EC1.5<250 nM)
O=C(Nc1ccccc1-c1nc2cccnc2s1)c1cc(N2C[C@H]3C[C@@H]2CN3)nc(-c2ccccc2)n1 [Compound 71]	A (Fold activation≧300%)	A′ (EC1.5<250 nM)
O=C(Nc1ccccc1-c1nc2cccnc2s1)c1cc(NCC2CCCCN2)nc(-c2ccccc2)n1 (stereo not drawn) [Compound 89]	A (Fold activation≧300%)	A′ (EC1.5<250 nM)
O=C(Nc1ccccc1-c1nc2cccnc2s1)c1cc(N[C@H]2CCCNC2)nc(-c2ccccc2)n1 [Compound 85]	A (Fold activation≧300%)	A (EC1.5≧250 nM and ≦1 uM)
O=C(Nc1ccccc1-c1nc2cccnc2s1)c1ccc(CN2CCOCC2)c(-c2ccccc2)n1 [Compound 77]	B (Fold Activation≧150% and <300%)	A (EC1.5≧250 nM and ≦1 uM)
O=C(Nc1ccccc1-c1nc2cccnc2s1)c1cc(NCC2CCNCC2)nc(-c2ccccc2)n1 [Compound 82]	A (Fold activation≧300%)	A′ (EC1.5<250 nM)
O=C(Nc1ccccc1-c1nc2ccncc2s1)c1cc(NCCN2CCCC2)nc(-c2ccccc2)n1 [Compound 56]	A (Fold activation≧300%)	A′ (EC1.5<250 nM)
O=C(Nc1ccccc1-c1nc2cccnc2s1)c1cc(CN2CCOCC2)nc(-c2ccccc2)n1 [Compound 10]	A (Fold activation≧300%)	A (EC1.5≧250 nM and ≦1 uM)
CCOc1cc(C(=O)Nc2ccccc2-c2nc3cccnc3s2)nc(-c2ccccc2)n1 [Compound 18]	C (Fold Activation<150%)	C (EC1.5>10 uM)
CCOC(=O)CCNc1cc(C(=O)Nc2ccccc2-c2nc3cccnc3s2)nc(-c2ccccc2)n1 [Compound 43]	B (Fold Activation≧150% and <300%)	A (EC1.5≧250 nM and ≦1 uM)
Cc1nc(NCCN(C)C)cc(C(=O)Nc2ccccc2-c2nc3cccnc3s2)n1 [Compound 28]	A (Fold activation≧300%)	B (EC1.5>1 and ≦10 uM)
COCCN1CCN(CCOc2cc(C(=O)Nc3ccccc3-c3nc4cccnc4s3)nc(-c3ccccc3)c2)CC1 [Compound 12]	A (Fold activation≧300%)	A′ (EC1.5<250 nM)
O=C(Nc1ccccc1-c1nc2cccnc2s1)c1cc(NC2CCCCC2)nc(-c2ccccc2)n1 [Compound 63]	C (Fold Activation<150%)	C (EC1.5>10 uM)
CN(C)CCNc1cc(C(=O)Nc2ccccc2-c2nc3cccnc3s2)ncn1 [Compound 26]	A (Fold activation≧300%)	B (EC1.5>1 and ≦10 uM)
O=C(Nc1ccccc1-c1nc2ccncc2s1)c1cc(NCc2ccncc2)nc(-c2ccccc2)n1 [Compound 32]	A (Fold activation≧300%)	A (EC1.5≧250 nM and ≦1 uM)
COCCN1CCN(c2cc(C(=O)Nc3ccccc3-c3nc4cccnc4s3)nc(-c3ccccc3)n2)CC1 [Compound 3]	A (Fold activation≧300%)	A′ (EC1.5<250 nM)
O=C(Nc1ccccc1-c1nc2ccncc2s1)c1cc(N2CCNCC2)nc(-c2ccccc2)n1 [Compound 23]	A (Fold activation≧300%)	A′ (EC1.5<250 nM)

Next, values leading:

FOLD ACT. (percent maximum fold activation)	EC1.5	SMILES
A (Fold activation≧300%)	A′ (EC1.5<250 nM)	CCCN1CCC(Nc2cc(C(=O)Nc3ccccc3-c3nc4cccnc4s3)nc(-c3ccccc3)n2)CC1 [Compound 101]
A (Fold activation≧300%)	A′ (EC1.5<250 nM)	COCCN(C)c1cc(C(=O)Nc2ccccc2-c2nc3cccnc3s2)nc(-c2ccccc2)c1 [Compound 137]
A (Fold activation≧300%)	A′ (EC1.5<250 nM)	Cc1cccc(-c2nc(NCCN3CCCCC3)cc(C(=O)Nc3ccccc3-c3nc4cccnc4s3)n2)c1 [Compound 132]
A (Fold activation≧300%)	A′ (EC1.5<250 nM)	CC(C)C(=O)N1CCC(Nc2cc(C(=O)Nc3ccccc3-c3nc4cccnc4s3)nc(-c3ccccc3)n2)CC1 [Compound 117]
A (Fold activation≧300%)	A (EC1.5≧250 nM and ≦1 uM)	CCN(CC)CCOc1cc(C(=O)Nc2ccccc2-c2nc3cccnc3s2)nc(-c2ccccc2)n1 [Compound 90]
B (Fold Activation≧150% and <300%)	A (EC1.5≧250 nM and ≦1 uM)	O=C1CN(c2cc(C(=O)Nc3ccccc3-c3nc4cccnc4s3)nc(-c3ccccc3)n2)CCN1 [Compound 149]
A (Fold activation≧300%)	A′ (EC1.5<250 nM)	CN(C)CCNc1cc(C(=O)Nc2ccccc2-c2nc3cccnc3s2)nc(-c2ccccc2)c1 [Compound 110]
A (Fold activation≧300%)	A′ (EC1.5<250 nM)	O=C(Nc1ccccc1-c1nc2cccnc2s1)c1cc(NC(CO)CO)cc(-c2ccccc2)n1 [Compound 128]
A (Fold activation≧300%)	A′ (EC1.5<250 nM)	O=C(Nc1ccccc1-c1nc2cccnc2s1)c1cc(NC2CCNC2)nc(-c2ccccc2)n1 (stereo not drawn) [Compound 104]
A (Fold activation≧300%)	A′ (EC1.5<250 nM)	CNCCNc1cc(C(=O)Nc2ccccc2-c2nc3cccnc3s2)nc(-c2ccccc2)n1 [Compound 121]
A (Fold activation≧300%)	A′ (EC1.5<250 nM)	Cc1cccc(-c2nc(NCCN3CCOCC3)cc(C(=O)Nc3ccccc3-c3nc4cccnc4s3)n2)c1 [Compound 133]
B (Fold Activation≧150% and <300%)	A (EC1.5≧250 nM and ≦1 uM)	Cc1cccc(-c2nc(C(=O)Nc3ccccc3-c3nc4cccnc4s3)cc(N3CCOCC3)n2)c1 [Compound 148]
